Experimental data reported in patent US20090029366A1 (priority 2007, published 2009).

Target: T1, HCN3 channel (Homo sapiens, UniProt Q9P1Z3)
T1 construct: expressed in transfected cells; host or cells: HEK-293H
T1 sequence (Q9P1Z3 1-774): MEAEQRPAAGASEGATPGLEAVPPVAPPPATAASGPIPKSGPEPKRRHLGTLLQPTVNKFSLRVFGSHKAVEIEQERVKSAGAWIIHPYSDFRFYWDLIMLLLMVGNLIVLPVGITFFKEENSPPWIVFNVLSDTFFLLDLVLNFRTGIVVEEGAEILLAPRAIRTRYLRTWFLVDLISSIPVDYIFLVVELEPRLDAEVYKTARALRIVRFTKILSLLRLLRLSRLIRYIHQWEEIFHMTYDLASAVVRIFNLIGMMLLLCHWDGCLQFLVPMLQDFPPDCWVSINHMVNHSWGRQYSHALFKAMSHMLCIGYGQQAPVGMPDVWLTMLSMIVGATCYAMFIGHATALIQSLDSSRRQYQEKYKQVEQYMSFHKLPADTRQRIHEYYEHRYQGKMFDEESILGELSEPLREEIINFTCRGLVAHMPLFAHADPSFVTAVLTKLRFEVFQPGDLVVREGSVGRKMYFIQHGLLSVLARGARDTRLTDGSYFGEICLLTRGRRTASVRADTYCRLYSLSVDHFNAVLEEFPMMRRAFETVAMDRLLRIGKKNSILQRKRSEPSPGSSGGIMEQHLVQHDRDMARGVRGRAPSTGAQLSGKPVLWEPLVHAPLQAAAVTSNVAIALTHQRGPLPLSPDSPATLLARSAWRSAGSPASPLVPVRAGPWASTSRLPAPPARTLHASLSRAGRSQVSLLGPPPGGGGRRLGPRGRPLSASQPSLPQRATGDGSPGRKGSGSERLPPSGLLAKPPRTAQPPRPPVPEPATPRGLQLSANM
Experiment: MPSD FLIPR/FLEX 96 well hyperpolarization assay, HCN3
Type: cell-based
Conditions: HCN3 channel expressing HEK-293H cells, ZD7288 30 μM (FIG. 7A)
Protocol: The above-described assay was modified for use with the FLIPR®^96 or FLEX^96 96 well plate format. In brief, cells stably expressing HCN channels were plated at 40-80×10^3 cells/plate in 100-150 μl/well of DMEM supplemented with 10% fetal bovine serum, 1× NEAA, and 1× penicillin/streptomycin. Cells were cultured for 24-48 hours in a 5% CO2/air humidifiedincubator at 37° C. Cells were incubated in 30 μl/well of HBSS containing MPSD, as described above, for 15-45 minutes at room temperature.
Membrane potentials were measured at room temperature (21°-23°) using a FLIPR® system or a FLEXSTATION® (Molecular Devices of Sunnydale, Calif.). Control cells were incubated in HBSS/MPSD without a test agent. For identification of HCN channel modulators, cells were incubated in HBSS/MPSD and the presence of a test agent as described in Examples 5 and 6 herein below. […]
Cells were incubated in 30 μl HBSS supplemented with MPSD with or without 50 μM of the channel inhibitor ZD7288, dissolved in <1.0% dimethyl sulfoxide (DMSO) added to the HBSS solution. […] The change in fluorescence (ΔF) was measured for a total assay time of about 100 seconds. […]
FIG. 6A depicts the whole-plate screenshot of the changes in fluorescence/membrane potential over time. FIG. 7A depicts the change in fluorescence (F) over time for control cells (upper trace) and for cells exposed to ZD7288 at a concentration of 30 μM (lower trace). […]

**Q.** `CCN(c1ccccc1)c1cc(=NC)n(C)c(C)n1.Cl` [ZD7288] was tested. Which “blockade of hyperpolarization (change in fluorescence)” value did it give?
**A.** effectively blocked hyperpolarization
